Data as given in ChEMBL document CHEMBL4414629, “Macroline-Sarpagine Bisindole Alkaloids with Antiproliferative Activity from Alstonia penangiana” (J Nat Prod, 2019).

Legend:
HCT-116 = test: Antiproliferative activity against human HCT116 cells assessed as reduction in cell growth after 72 hrs by MTT assay; assay type: functional, cell-based; settings: HCT-116, 72 h
HT-29 = test: Antiproliferative activity against human HT-29 cells assessed as reduction in cell growth after 72 hrs by MTT assay; assay type: functional, cell-based; settings: HT-29, 72 h
[1] = Antiproliferative activity against human KB/S cells assessed as reduction in cell growth after 72 hrs by MTT assay; assay type: functional, cell-based
KB/VJ300 [2] = test: Antiproliferative activity against human KB/VJ300 cells assessed as reduction in cell growth after 72 hrs by MTT assay; assay type: functional, cell-based; settings: KB/VJ300, 72 h
PC-3 = test: Antiproliferative activity against human PC3 cells assessed as reduction in cell growth after 72 hrs by MTT assay; assay type: functional, cell-based; settings: PC-3, 72 h
CCD-18Co = test: Cytotoxicity against human CCD-18Co cells assessed as reduction in cell growth after 72 hrs by MTT assay; assay type: cell-based
MDA-MB-231 = test: Antiproliferative activity against human MDA-MB-231 cells assessed as reduction in cell growth after 72 hrs by MTT assay; assay type: functional, cell-based; settings: MDA-MB-231, 72 h
A549 = test: Antiproliferative activity against human A549 cells assessed as reduction in cell growth after 72 hrs by MTT assay; assay type: functional, cell-based; settings: A549, 72 h
MCF7 = test: Antiproliferative activity against human MCF7 cells assessed as reduction in cell growth after 72 hrs by MTT assay; assay type: functional, cell-based; settings: MCF7, 72 h
LNCaP = test: Antiproliferative activity against human LNCAP cells assessed as reduction in cell growth after 72 hrs by MTT assay; assay type: functional, cell-based
MRC5 = test: Cytotoxicity against human MRC5 cells assessed as reduction in cell growth after 72 hrs by MTT assay; assay type: cell-based; settings: MRC5, 72 h
KB/VJ300 [3] = test: Antiproliferative activity against human vincristine-rsistant KB/VJ300 cells assessed as reduction in cell growth after 72 hrs by MTT assay; assay type: functional, cell-based; settings: KB/VJ300, 72 h

Row | Compound | IC50 (HCT-116) [µM] | IC50 (HT-29) [µM] | IC50 [1] [µM] | IC50 (KB/VJ300 [2]) [µM] | IC50 (PC-3) [µM] | IC50 (CCD-18Co) [µM] | IC50 (MDA-MB-231) [µM] | IC50 (A549) [µM] | IC50 (MCF7) [µM] | IC50 (LNCaP) [µM] | IC50 (MRC5) [µM] | IC50 (KB/VJ300 [3]) [µM]
1 | C/C=C1/CN2[C@H]3C[C@@H]1[C@@H](CO)[C@@H]2Cc1c3n(C)c2cc(C[C@H]3[C@@H]4C[C@H]5c6c(c7ccccc7n6C)C[C@@H]([C@@H]4CO[C@]3(C)OC)N5C)c(OC)cc12 | 2.9 | 0.03 | 2.4 | 2.9 | 3.1 | 4.3 | 1.4 | 6.8 | 1.3 | – | – | –
2 | C/C=C1/CN2[C@H]3C[C@@H]1[C@@H](CO)[C@@H]2Cc1c3n(C)c2cc(C(C)C3=COC[C@@H]4[C@H]3C[C@H]3c5c(c6ccccc6n5C)C[C@@H]4N3C)c(OC)cc12 (stereo partly drawn) | > 10 | 0.3 | 0.6 | 6.7 | 8.2 | – | 4.5 | 7 | 4.5 | 6.2 | 7.9 | 0.2
3 | C/C=C1/CN2[C@H]3C[C@@H]1[C@@H](CO)[C@@H]2Cc1c3n(C)c2ccc(OC)c(CC3=C(C)OC[C@@H]4[C@H]3C[C@H]3c5c(c6ccccc6n5C)C[C@@H]4N3C)c12 | 4.2 | 0.07 | 2.8 | 5.9 | 6.1 | 9.7 | 4.8 | 9 | 2 | – | – | –
4 | C/C=C1/CN2[C@H]3C[C@@H]1[C@@H](CO)[C@@H]2Cc1c3n(C)c2cc(C[C@@H]3[C@@H]4C[C@H]5c6c(c7ccccc7n6C)C[C@@H]([C@@H]4CO[C@]3(C)OC)N5C)c(OC)cc12 | > 10 | 0.07 | 1.1 | > 10 | > 10 | – | 4.8 | > 10 | 5.3 | 3.7 | > 10 | 3.9
5 | C/C=C1/CN2[C@H]3C[C@@H]1[C@@H](CO)[C@@H]2Cc1c3n(C)c2ccc(OC)c(C[C@@H](C(C)=O)[C@@H]3C[C@H]4c5c(c6ccccc6n5C)C[C@@H]([C@@H]3CO)N4C)c12 | 1.5 | 0.03 | 2.5 | 5.5 | > 10 | 4.1 | 4.1 | 3.9 | 7.7 | – | – | 8.8
6 | C/C=C1/CN2[C@H]3C[C@@H]1[C@@H](CO)[C@@H]2Cc1c3n(C)c2cc(C[C@@H](C(C)=O)[C@@H]3C[C@H]4c5c(c6ccccc6n5C)C[C@@H]([C@@H]3CO)N4C)c(OC)cc12 | 2.1 | 0.02 | 1.7 | 3.6 | > 10 | 5.1 | > 10 | 3 | 8.5 | – | – | 4.2
7 | COc1ccc(CCN(C)CCCC(C#N)(c2ccc(OC)c(OC)c2)C(C)C)cc1OC (stereo not drawn) [VERAPAMIL] | – | – | – | – | – | – | – | – | – | – | – | 0.4
8 | CC[C@]1(O)C[C@H]2CN(CCc3c([nH]c4ccccc34)[C@@](C(=O)OC)(c3cc4c(cc3OC)N(C=O)[C@H]3[C@@](O)(C(=O)OC)[C@H](OC(C)=O)[C@]5(CC)C=CCN6CC[C@]43[C@@H]65)C2)C1 [VINCRISTINE] | – | – | 0.0008 | 0.8 | – | – | – | – | – | – | – | –
